From PubChem BioAssay AID1361 (SRMLSC, 2008) come the findings set out here.

Active and inactive are the calls of the source. No rule for the calls is given here.

This experiment is described as follows: mitochondrial fusion inhibitors, confirmation, cell-based, chemical genetic, wild-type and mutant (AID 1361). The settings on record: Cell-based mitochondrial fusion phenotype, imaging.
The mark [1] stands for this setting: mutant cells, measured here: mutant cell line IC50.

`COc1cccc(OC)c1OCCCCN1CCCC1`: the IC50 (WT cells) was > 25 µM (inactive) and the IC50 under setting [1] is over 25 µM.
On to `O=C(Nc1ccc(F)cc1)c1ccccc1Oc1ccc(C(F)(F)F)cc1[N+](=O)[O-]`, for which the 50% inhibitory concentration (IC50) was 17.5 µM (WT cells) and over 25 µM under setting [1].
For `Cc1ccc(S(=O)(=O)c2c(C)nn(C(C)(C)C)c2OC(=O)CC(C)C)cc1`, in that order: 22.5 µM and over 25 µM.
On to `CCc1nnc(NC(=O)C2Cc3ccccc3CN2S(=O)(=O)c2ccc(C)cc2)s1` (stereo unspecified), for which the IC50 runs as follows: (WT cells) > 25 µM (inactive); under setting [1], over 25 µM.
On the same counts, the results for `CCOC(=O)C1=C(C)N=C2SCCC(=O)N2C1c1sccc1C` (stereo unspecified) are > 25 µM (inactive) and over 25 µM.
On the same counts, the results for `O=C(COC(=O)CC(c1ccccc1)c1ccccc1)NCc1ccc(Cl)cc1` are 14.7 µM and over 25 µM.
On to `CC1CCCN(C(=O)CSc2nnc(-c3cccnc3)n2C2CCCCC2)C1` (stereo unspecified), for which the IC50 was > 25 µM (inactive) (WT cells) and over 25 µM under setting [1].
For the molecule `COc1ccccc1NC1=C(Cl)C(=O)N(C2CCCCC2)C1=O`, the IC50 is 23.8 µM (WT cells) and over 25 µM under setting [1].
On the same counts, the results for `COc1cccc(N2C(=O)C(c3ccccc3)=C(c3nc4ccccc4s3)C2NC(C)=O)c1` (stereo unspecified) are > 25 µM (inactive) and over 25 µM.
`C/C(=C\C(=O)c1ccccc1)Nc1cccc(O)c1`: the IC50 reads like this: (WT cells) > 25 µM (inactive); under setting [1], over 25 µM.
For `CC1(C(=O)OCC(=O)c2c[nH]c3ccccc23)CC1(Cl)Cl` (stereo unspecified), in that order: 5.84 µM and 9.97 µM.
For `Cc1cccc(-c2noc(CN(C(=O)CCc3ccccc3)C(C)C)n2)c1`, in that order: > 25 µM (inactive) and 24.5 µM.
For `CCOC(=O)/C(=C\c1ccc(OC(F)F)cc1)C1=Nn2c(nnc2-c2ccc(Cl)cc2)SC1`, in that order: 10.8 µM and over 25 µM.
Turning to `CCOc1ccccc1NC(=O)C(NCC1CCCCC1)c1ccccc1` (stereo unspecified), the half-inhibitory concentration (IC50) was 14.3 µM (WT cells) and over 25 µM under setting [1].
On the same counts, the results for `Cc1cccc(N2CCN(C(=O)COc3ccc4c(c3)CCC4)CC2)c1C` are 14.8 µM and over 25 µM.
As for `CC(C)=CCc1c2c(c3occ(-c4ccc(O)cc4)c(=O)c3c1O)C=CC(C)(C)O2`, the IC50 is, setting by setting: (WT cells) 24.7 µM; under setting [1], over 25 µM.
For `COc1ccc(C(C(=O)Nc2ccc(F)cc2)N(C(=O)Cn2nnc3ccccc32)C2CC2)cc1` (stereo unspecified), in that order: > 25 µM (inactive) and over 25 µM.
On the same counts, the results for `O=C(C1=C[C@@H](c2csc3ccccc23)C[C@@H](OCc2ccc(CO)cc2)O1)N1CCN(Cc2ccccc2)CC1` are 5.83 µM and over 25 µM.
As to `CCOC(=O)C1=C(CC)Nc2ccccc2N/C1=N\S(=O)(=O)c1ccc2ccccc2c1`, the IC50 is 11 µM (WT cells) and over 25 µM under setting [1].
Consider `Cc1ccc(-n2nc3c(c2NC(=O)c2ccc4c(c2)OCO4)CSC3)c(C)c1`, for which the IC50 runs as follows: (WT cells) > 25 µM (inactive); under setting [1], over 25 µM.
Turning to `CN1C=CC=C/C1=C1\SC(=S)N(c2ccccc2)C1=O`, the IC50 (WT cells) is > 25 µM (inactive) and the IC50 under setting [1] is over 25 µM.
On the same counts, the results for `Cc1cccc(N(C)C(=S)Oc2ccc3ccccc3c2)c1` are 8.79 µM and over 25 µM.
For `COc1ccc(C(C)(C)C)cc1NC(=O)Nc1ccc2c(c1)OCO2`, in that order: 9.81 µM and 23.3 µM.
For `O=C1CC(SCc2nc3ccccc3[nH]2)C(=O)N1c1cccc(F)c1` (stereo unspecified), the IC50 was > 25 µM (inactive) (WT cells) and over 25 µM under setting [1].
For `CN(C)c1ccc(S(=O)(=O)c2ccc(Cl)cc2)cc1`, in that order: > 25 µM (inactive) and over 25 µM.
Regarding `CN(c1cccc(NC(=O)Nc2ccc(Cl)cc2)c1)S(C)(=O)=O`, the IC50 was > 25 µM (inactive) (WT cells) and over 25 µM under setting [1].
For the molecule `C=C(C)C1CC=C(C)/C(=N\NC(=S)Nc2ccc(C)cc2)C1` (stereo unspecified), the IC50 is > 25 µM (inactive) (WT cells) and over 25 µM under setting [1].
As for `CCN(CC)c1ccc(NC(=O)Nc2ccccc2C(F)(F)F)cc1`, the IC50 was > 25 µM (inactive) (WT cells) and over 25 µM under setting [1].
For `CCCCCOc1ccc(CSCCNC(=S)Nc2ccccc2)cc1`, in that order: 5.86 µM and over 25 µM.
On the same counts, the results for `CC1CN(c2ncnc3c2c(-c2ccccc2)cn3-c2ccc(F)cc2)CC(C)O1` (stereo unspecified) are 21.4 µM and over 25 µM.
For `CC(=O)Nc1ccc(S(=O)(=O)N2CCSC2c2ccc(Cl)cc2)cc1` (stereo unspecified), the IC50 by setting is: (WT cells) > 25 µM (inactive); under setting [1], over 25 µM.
On the same counts, the results for `COc1ccc(-c2nc3n(c(=O)c2C#N)CCCS3)cc1` are > 25 µM (inactive) and over 25 µM.
On to `CCCCC(=O)NC(=S)Nc1ccccc1N1CCCCC1`, for which the IC50 by setting is: (WT cells) 19.8 µM; under setting [1], over 25 µM.
As for `c1ccc(-c2cn3c(n2)CCc2ccc4cccnc4c2-3)cc1`, the IC50 runs as follows: (WT cells) 23.7 µM (inactive); under setting [1], 21.3 µM.
On the same counts, the results for `Fc1ccc(N2N=C(c3cccs3)CC2c2ccco2)c(F)c1` (stereo unspecified) are 15.8 µM and 22.3 µM.
With `Cc1cc(=O)oc(C)c1C(=O)Nc1ccc2nsnc2c1`, the IC50 was > 25 µM (inactive) (WT cells) and over 25 µM under setting [1].
On the same counts, the results for `CCOc1ccccc1N1CCN(C(=O)c2ccc3[nH]c4c(c3c2)CCCC4)CC1` are 17.1 µM and over 25 µM.
On the same counts, the results for `CC(c1ccccc1)N(CC(=O)NC1CCCCC1)S(=O)(=O)c1cccc(C(F)(F)F)c1` (stereo unspecified) are 12.4 µM and over 25 µM.
On the same counts, the results for `COc1ccc(C2=NN(C(=O)c3cccs3)C(c3ccccc3O)C2)cc1` (stereo unspecified) are 13.8 µM and 24.9 µM.
Turning to `CCOC(=O)N1CCN(S(=O)(=O)c2ccc(C)cc2)C1c1ccc(OC)cc1` (stereo unspecified), the IC50 (WT cells) was > 25 µM (inactive) and the IC50 under setting [1] was over 25 µM.
On to `CC(C)CNS(=O)(=O)c1ccc(S(=O)(=O)N2CCCN(Cc3ccccc3)C2)cc1`, for which the IC50 is > 25 µM (inactive) (WT cells) and over 25 µM under setting [1].
For `Cc1nc(-c2cccc(NS(=O)(=O)c3cccc4ccccc34)c2)cs1`, in that order: 15.9 µM and over 25 µM.
As for `CCCCOP(=O)(OCCCC)C(Nc1ccccc1)c1ccc2c(c1)OCO2` (stereo unspecified), the IC50 is 20.3 µM (WT cells) and over 25 µM under setting [1].
In the case of `CC(C)CCNC(=O)CN(CC1CCCO1)C(=O)CCC(=O)Nc1ccccn1` (stereo unspecified), the IC50 was > 25 µM (inactive) (WT cells) and over 25 µM under setting [1].
For `COc1ccc(-c2nc3ccccc3s2)cc1O`, in that order: > 25 µM (inactive) and over 25 µM.
With `CCOC(=O)c1cnc(SC)nc1Sc1cc(Cl)ccc1Cl`, the IC50 is 11.2 µM (WT cells) and 23.9 µM under setting [1].
For `CCOc1ccc(NS(=O)(=O)c2ccc(NC(=S)NC(=O)CC(C)C)cc2)cc1`, the IC50 reads like this: (WT cells) 14.3 µM; under setting [1], over 25 µM.
On the same counts, the results for `O=C(c1cc(-c2ccc(Cl)cc2)n(-c2ccc(Cl)c(Cl)c2)n1)N1CCOCC1` are 16.9 µM and over 25 µM.
As for `O=C(CNC(=S)N(Cc1ccccc1)Cc1ccccc1F)NCc1ccccc1`, the IC50 was 17.7 µM (WT cells) and over 25 µM under setting [1].
Consider `COc1ccccc1N=Nc1nc(-c2ccccc2)c(-c2ccccc2)[nH]1`, for which the IC50 is, setting by setting: (WT cells) 7.2 µM; under setting [1], 17.4 µM.
For `CN(CC(=O)Nc1ccccc1Sc1ccccc1)C1CCCCC1`, in that order: 23.2 µM and over 25 µM.
For `Clc1ccc2ncc(-c3nnnn3-c3ccccc3)c(-c3ccccc3)c2c1`, the IC50 runs as follows: (WT cells) 15.7 µM; under setting [1], over 25 µM.
For `CC1CCc2nc(NC(=O)CN3CCN(c4ccc(F)cc4)CC3)sc2C1` (stereo unspecified), in that order: > 25 µM (inactive) and 15.9 µM.
Regarding `Cc1cc(NC(=O)COC(=O)C(Nc2ccc(C(F)(F)F)cc2Cl)C(C)C)no1` (stereo unspecified), the half-inhibitory concentration (IC50) was 13.8 µM (WT cells) and 24.2 µM under setting [1].
On the same counts, the results for `c1ccc(-c2nnc(CSc3nnc(-c4ccncc4)n3Cc3ccco3)o2)cc1` are > 25 µM (inactive) and over 25 µM.
`Cc1cc(Oc2cnn(C(C)(C)C)c(=O)c2Cl)cc(C(C)C)c1`: the IC50 reads like this: (WT cells) 16.9 µM; under setting [1], over 25 µM.
With `CC(c1ccco1)N(C(=O)COc1ccccc1[N+](=O)[O-])c1ccccn1` (stereo unspecified), the IC50 by setting is: (WT cells) > 25 µM (inactive); under setting [1], over 25 µM.
On the same counts, the results for `Cc1cccc(N/N=C(\C=N\N)C(=O)c2ccc(Br)cc2)c1` are > 25 µM (inactive) and over 25 µM.
On the same counts, the results for `COC(=O)C1CN(C#N)N(c2ccc(Cl)cc2)C12c1ccccc1-c1ccccc12` (stereo unspecified) are 2.48 µM and over 25 µM.
On the same counts, the results for `CCOc1ccc(C(C(=O)NC2CCCC2)N(Cc2ccccc2)C(=O)c2nsc(Cl)c2Cl)cc1` (stereo unspecified) are 12 µM and over 25 µM.
For `COc1ccc(/C=C/c2nc3cc(-c4ccccc4)ccc3o2)cc1O`, the IC50 runs as follows: (WT cells) 11.6 µM; under setting [1], over 25 µM.
`CC(C)CN(C(=O)c1nn(C)c(=O)c2ccccc12)c1nc2ccccc2s1`: the IC50 is 21.9 µM (WT cells) and over 25 µM under setting [1].
Take `O=C(CSc1nnc2scc(-c3ccccc3)n12)Nc1ccc2c(c1)OCCO2`: the IC50 reads like this: (WT cells) > 25 µM (inactive); under setting [1], over 25 µM.
On the same counts, the results for `N#CC(c1ccc(Cl)cc1)(c1ncc(C(F)(F)F)cc1Cl)N1CCOCC1` (stereo unspecified) are > 25 µM (inactive) and over 25 µM.
For `Cc1ccc(S(=O)(=O)n2c3ccc(Cl)cc3c3nc(C)sc32)cc1`, the IC50 reads like this: (WT cells) 9.63 µM; under setting [1], over 25 µM.
On the same counts, the results for `CCCOC(=O)CN1C(=O)c2ccccc2C1=O` are > 25 µM (inactive) and over 25 µM.
For `CCCN(CCC)CCCNC(=O)CS(=O)Cc1nc(-c2ccc(OC)c(OC)c2)oc1C` (stereo unspecified), in that order: > 25 µM (inactive) and over 25 µM.
For the molecule `O=C(c1cc(Cl)cc(Cl)c1)N1CCC(=O)N(C(COCc2ccccc2)Cc2ccccc2)CC1` (stereo unspecified), the IC50 reads like this: (WT cells) > 25 µM (inactive); under setting [1], over 25 µM.

As usually defined, the IC50 is the point on the concentration scale where inhibition reaches its midpoint.
